Results published in US20240287124A1, “PRODRUGS OF 4'-SUBSTITUTED NUCLEOSIDE REVERSE TRANSCRIPTASE INHIBITORS” (Merck Sharp & Dohme LLC, priority 2023, published 2024).
In brackets after ≈: the same amount, converted by molar mass.

How the values were obtained:
[1] = tested on: HIV-1 wild-type (R8) virus; assay: Viral KINetics in Green cells (VIKING) assay, HIV-1 replication in MT4-GFP reporter cells; type: cell-based; details: Human immunodeficiency virus 1, 10% normal human serum, MT4-GFP cells, HIV-1 wild-type (R8); read-out: Viking (10% NHS), IC50
In short: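 Compounds in 3-fold, 10-point series (typical 4 μM-0.2 nM) in 10% normal human serum received MT4 GFP-reporter T cells pre-infected overnight with wild-type R8 virus (MOI ~0.01). Ratio of GFP-positive cells at 72 vs 48 h defined replication; IC50 from nonlinear 4-parameter dose-response fitting.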

[2] = Aqueous solubility in PBS, pH 7.4; type: physicochemical; details: phosphate buffered saline, pH 7.4, aqueous buffer, thermodynamic from solid, pH 7.4 phosphate buffered saline, 24 hours, amorphous or crystalline material; read-out: Aqu. Solubility
In short: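 Excess solid suspended at 0.5 mg/mL in PBS pH 7.4 and stirred 24 hours. Filtrate (0.45 μm) diluted 1:1 with ACN:H2O and quantified by UPLC against a standard curve; residual solid phase checked by XRPD and PLM.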

[3] = Plasma stability in frozen human plasma; type: in vitro ADME; details: frozen human plasma at 37° C., 0-3 hr; read-out: T1/2 Human Plasma (converted)
Protocol: Plasma stability of the compounds was evaluated in frozen human plasma at 37° C. in a 10% CO2 environment. The stability of the analyte was assessed by determining the percentage of drug loss over the course of 0, 0.25, 0.5, 1, and 3 hr. In addition, the appearance of Compound A was determined for the same time course. Percent of drug loss as based on ratio with internal standard. Analyte concentrations were measured by LC/MS/MS. Linear regression was performed with log transformed percent of average TO values and linear time values. The elimination rate constant (ke) was calculated from the slope of this regression line and the half-life (T½) calculated based on the elimination rate constant.

SMILES	IC50 [1] [nM]	solubility at 24 h [2] [µg/mL]	half-life [3] [min]
C#C[C@]1(COC(=O)OC(C)C)O[C@@H](n2ccc3c(N)nc(Cl)nc32)C[C@@H]1O [Example 23, ((2R,3S,5R)-5-(4-amino-2-chloro-7H-pyrrolo[2,3-d]pyrimidin-7-yl)-2-ethynyl-3-hydroxytetrahydrofuran-2-yl)methyl isopropyl carbonate]	2.2	351 (≈ 889 µM)	1.68
C#C[C@]1(COC(=O)C(C)C)O[C@@H](n2ccc3c(N)nc(Cl)nc32)C[C@@H]1OC(=O)C(C)C [Example 42, (2R,3S,5R)-5-(4-amino-2-chloro-7H-pyrrolo[2,3-d]pyrimidin-7-yl)-2-ethynyl-2-((isobutyryloxy)methyl)tetrahydrofuran-3-yl isobutyrate]	10.9	< 1	< 15
C#C[C@]1(COC(=O)OCCCCC)O[C@@H](n2ccc3c(N)nc(Cl)nc32)C[C@@H]1O [Example 14, ((2R,3S,5R)-5-(4-amino-2-chloro-7H-pyrrolo[2,3-d]pyrimidin-7-yl)-2-ethynyl-3-hydroxytetrahydrofuran-2-yl)methyl pentyl carbonate]	2.5	113 (≈ 267 µM)	< 15
